Results published in PubChem BioAssay AID1963435 (Molecular Pharmacology Branch, DTP, NCI, 2024).

Test system: PANC-1 complex spheroid growth, percent test/control
Test: Anticancer human tumor PANC-1 cell line growth inhibition [Asc];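 further: spheroids exposed to agents for 7 days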;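 on viability, T/C: percent viability relative to DMSO vehicle wells taken as 100%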
Details: for IC50: curve of first compound; for viability, T/C: stronger effect = lower value
Experimental: Multicellular complex tumor spheroid response to apoptosis pathway targeting inhibitors Alrizomadlin, Pelcitoclax, and Dasminapant in combination with a variety of drugs and investigational agents in selected tumor cell lines
The MDM2 inhibitor alrizomadlin, the Bcl-2/Bcl-xL inhibitor pelcitoclax, and the IAPs inhibitor dasminapant were evaluated both individually and in combination with standard of care and investigational anticancer small molecules within a complex spheroid model of solid tumors. . Complex spheroids include a stromal component modeled by human endothelial cells (HUVEC) and fibroblasts modeled by human mesenchymal stem cells (MSCs). The concentration ranges selected for each drug and investigational agent were based upon clinically achievable concentrations if the clinical Cmax of the agent was known.
Compounds. The drugs and investigational agents: alrizomadlin (APG-115; NSC831270), pelcitoclax (APG-1252; NSC835773), dasminapant (APG-1387;NSC834197), TAK-243 (NSC785004), copanlisib (NSC809693), olaparib (NSC753686), talazoparib (NSC767125), cobimetinib (NSC 768068), eltanexor (KPT-8602, NSC 794443), abemaciclib (NSC 768073), sotorasib (NSC818433), adagrasib (NSC 831453), MRTX-1133 (NSC 836407), Iadademestat (ORY1001, NSC 806812), and RMC-4630 (NSC839698), were obtained from the NCI Developmental Therapeutics Program Chemical Repository. The FDA-approved anticancer drug set is available from the Developmental Therapeutics Program at https://dtp.cancer.gov/organization/dscb/obtaining/available plates.htm. […] The stock solutions were prepared in dimethyl sulfoxide (DMSO, Sigma-Aldrich, St. Louis, MO, cat. D2650) at 800-fold the tested concentration and stored at -70 degrees C prior to their use. All drugs and investigational agents were tested over a range starting from a high concentration at or near the clinical Cmax and decreasing in half-log increments. If the clinical Cmax for an agent had not been determined, the highest concentration tested was 10 microM.
The patient-derived cancer (PDC) cell lines include five colon adenocarcinomas: 186277-243-T-J2-PDC, 616215-338-R-J1-PDC, 439559-082-T-J2-PDC, 463943-066-T-J2-PDC, and 519858-162-T-J1-PDC; three pancreatic carcinomas: 323965-272-R-J2-PDC, 521955-158-R6-J3-PDC, and 521955-158-R2-J5-PDC; two uterine sarcomas: 327498-152-R-J2-PDC and 993429-296-R-J1-PDC; two rhabdomyosarcomas: 755483-174-R-J1-PDC and 772245-204-R-J1-PDC; two soft tissue sarcomas: 126254-015-R-J1-PDC and 494315-158-R-J1-PDC; two malignant fibrous histiocytomas: 317291-083-R-J1-PDC and 596521-263-R-J1-PDC; two breast carcinomas: 171881-019-R-J1-PDC and 885512-296-R-J2-PDC; and one ovarian carcinoma: 6556581-035-R-J-PDC were obtained from the NCI PDMR, (https://pdmr.cancer.gov). The established cell lines HSSY-2 synovial sarcoma (RRID:CVCL 8719), SYO-1 synovial sarcoma (RRID:CVCL_7146), MPNST malignant peripheral neural sheath tumor were obtained from the Sloan Kettering Institute. The following established cell lines were purchased from the American Type Culture Collection (ATCC, Manassas, VA), Sor the received from the NCI repository:, PANC-1 pancreatic carcinoma (CRL-1469, RRID:CVCL_0480), OVCAR-5 ovarian carcinoma (RRID:CVCL_1628), OVCAR-8 ovarian carcinoma (RRID:CVCL_1629), , MCF-7 breast carcinoma (CRL-12584, RRID:CVCL_0031), MDA-MB-231 breast carcinoma (CRL-12532, RRID:CVCL_0062), NCI-H1876 small cell lung carcinoma (CRL-5902, RRID:CVCL_1503), NCI-H510A small cell lung carcinoma (HTB-184, RRID:CVCL_1565), NCI-H1417 (CRL-5869, RRID:CVCL_1469), and NCI-H196 small cell lung carcinoma (CRL-5823, RRID:CVCL_1509). Dr. Peter Houghton (Greehey Children's Cancer Research Institute, University of Texas Health Science Center, San Antonio, TX) provided Rh-18 rhabdomyosarcoma (RRID:CVCL_1659). Pooled donor human umbilical vein endothelial cells (HUVEC, Lonza, cat. CC-2519) and human mesenchymal stem cells (hMSC, Lonza, cat. PT-2501) were purchased from Lonza (Walkersville, MD).
Cell Culture. […]

[1] = second compound 0.00949 µM, first compound 0.00316 µM
[2] = second compound 0.00949 µM, first compound 0.01 µM
[3] = second compound 0.00949 µM, first compound 0.0316 µM
[4] = second compound 0.00949 µM, first compound 0.1 µM
[5] = second compound 0.00949 µM, first compound 0.316 µM
[6] = second compound 0.00949 µM, first compound 1 µM
[7] = second compound 0.03 µM, first compound 0.00316 µM
[8] = second compound 0.03 µM, first compound 0.01 µM
[9] = second compound 0.03 µM, first compound 0.0316 µM
[10] = second compound 0.03 µM, first compound 0.1 µM
[11] = second compound 0.03 µM, first compound 0.316 µM
[12] = second compound 0.03 µM, first compound 1 µM
[13] = second compound 0.0949 µM, first compound 0.00316 µM
[14] = second compound 0.0949 µM, first compound 0.01 µM
[15] = second compound 0.0949 µM, first compound 0.0316 µM
[16] = second compound 0.0949 µM, first compound 0.1 µM
[17] = second compound 0.0949 µM, first compound 0.316 µM
[18] = second compound 0.0949 µM, first compound 1 µM
[19] = second compound 0.3 µM, first compound 0.00316 µM
[20] = second compound 0.3 µM, first compound 0.01 µM
[21] = second compound 0.3 µM, first compound 0.0316 µM
[22] = second compound 0.3 µM, first compound 0.1 µM
[23] = second compound 0.3 µM, first compound 0.316 µM
[24] = second compound 0.3 µM, first compound 1 µM
[25] = second compound 0.949 µM, first compound 0.00316 µM
[26] = second compound 0.949 µM, first compound 0.01 µM
[27] = second compound 0.949 µM, first compound 0.0316 µM
[28] = second compound 0.949 µM, first compound 0.1 µM
[29] = second compound 0.949 µM, first compound 0.316 µM
[30] = second compound 0.949 µM, first compound 1 µM
[31] = second compound 3 µM, first compound 0.00316 µM
[32] = second compound 3 µM, first compound 0.01 µM
[33] = second compound 3 µM, first compound 0.0316 µM
[34] = second compound 3 µM, first compound 0.1 µM
[35] = second compound 3 µM, first compound 0.316 µM
[36] = second compound 3 µM, first compound 1 µM

Which IC50 (second compound 0.00949 µM) does the source give for CCN1CCN(Cc2ccc(Nc3ncc(F)c(-c4cc(F)c5nc(C)n(C(C)C)c5c4)n3)nc2)CC1 + CCN1C(C(=O)NC23CCC(C(=O)O)(CC2)CC3)C(c2cccc(Cl)c2F)C2(C(=O)Nc3cc(Cl)ccc32)C12CCCCC2 here?
Its IC50 is greater than 1000 nM.

And the IC50 (second compound 0.03 µM)?
The IC50 was greater than 1000 nM.

What about the IC50 (second compound 0.0949 µM) of the same compound?
The IC50 was greater than 1000 nM.

What about the IC50 (second compound 0.3 µM) of the same compound?
Its IC50 is greater than 1000 nM.

And the IC50 (second compound 0.949 µM)?
The IC50 was greater than 1000 nM.

And the IC50 (second compound 3 µM)?
Its IC50 is greater than 1000 nM.

What about the viability, T/C [1] of the same compound?
The viability, T/C was 112%.

What about the viability, T/C [2] of the same compound?
The viability, T/C was 102%.

And the viability, T/C [3]?
Its viability, T/C is 109%.

And the viability, T/C [4]?
Its viability, T/C is 117%.

And the viability, T/C [5]?
Its viability, T/C is 126%.

What about the viability, T/C [6] of the same compound?
Its viability, T/C is 139%.

And the viability, T/C [7]?
Its viability, T/C is 105%.

And the viability, T/C [8]?
Its viability, T/C is 97.8%.

And the viability, T/C [9]?
The viability, T/C was 114%.

What about the viability, T/C [10] of the same compound?
Its viability, T/C is 114%.

What about the viability, T/C [11] of the same compound?
The viability, T/C was 131%.

What about the viability, T/C [12] of the same compound?
The viability, T/C was 141%.

What about the viability, T/C [13] of the same compound?
The viability, T/C was 108%.

And the viability, T/C [14]?
Its viability, T/C is 108%.

What about the viability, T/C [15] of the same compound?
The viability, T/C was 105%.

And the viability, T/C [16]?
Its viability, T/C is 105%.

And the viability, T/C [17]?
Its viability, T/C is 125%.

And the viability, T/C [18]?
The viability, T/C was 140%.

And the viability, T/C [19]?
Its viability, T/C is 99.8%.

What about the viability, T/C [20] of the same compound?
The viability, T/C was 131%.

And the viability, T/C [21]?
The viability, T/C was 110%.

And the viability, T/C [22]?
The viability, T/C was 117%.

And the viability, T/C [23]?
Its viability, T/C is 124%.

What about the viability, T/C [24] of the same compound?
Its viability, T/C is 150%.

What about the viability, T/C [25] of the same compound?
The viability, T/C was 102%.

What about the viability, T/C [26] of the same compound?
Its viability, T/C is 119%.

What about the viability, T/C [27] of the same compound?
The viability, T/C was 121%.

And the viability, T/C [28]?
Its viability, T/C is 111%.

What about the viability, T/C [29] of the same compound?
Its viability, T/C is 128%.

And the viability, T/C [30]?
Its viability, T/C is 140%.

What about the viability, T/C [31] of the same compound?
Its viability, T/C is 116%.

What about the viability, T/C [32] of the same compound?
The viability, T/C was 125%.

And the viability, T/C [33]?
The viability, T/C was 118%.

What about the viability, T/C [34] of the same compound?
Its viability, T/C is 124%.

What about the viability, T/C [35] of the same compound?
Its viability, T/C is 131%.

And the viability, T/C [36]?
Its viability, T/C is 157%.

For O=C(c1ccc(F)c(F)c1Nc1ccc(I)cc1F)N1CC(O)([C@@H]2CCCCN2)C1 + CCN1C(C(=O)NC23CCC(C(=O)O)(CC2)CC3)C(c2cccc(Cl)c2F)C2(C(=O)Nc3cc(Cl)ccc32)C12CCCCC2, which IC50 (second compound 0.00949 µM) is on record?
The IC50 was greater than 1000 nM.

And the IC50 (second compound 0.03 µM)?
Its IC50 is greater than 1000 nM.

What about the IC50 (second compound 0.0949 µM) of the same compound?
Its IC50 is greater than 1000 nM.

What about the IC50 (second compound 0.3 µM) of the same compound?
The IC50 was greater than 1000 nM.

And the IC50 (second compound 0.949 µM)?
The IC50 was greater than 1000 nM.

And the IC50 (second compound 3 µM)?
Its IC50 is greater than 1000 nM.

And the viability, T/C [1]?
Its viability, T/C is 90.7%.

What about the viability, T/C [2] of the same compound?
Its viability, T/C is 93.4%.

And the viability, T/C [3]?
The viability, T/C was 87.1%.

And the viability, T/C [4]?
The viability, T/C was 81.8%.

What about the viability, T/C [5] of the same compound?
The viability, T/C was 93.1%.

And the viability, T/C [6]?
Its viability, T/C is 93.7%.

And the viability, T/C [7]?
The viability, T/C was 90.5%.

And the viability, T/C [8]?
Its viability, T/C is 98.3%.

And the viability, T/C [9]?
The viability, T/C was 98.5%.

And the viability, T/C [10]?
Its viability, T/C is 87.3%.

What about the viability, T/C [11] of the same compound?
Its viability, T/C is 95%.

What about the viability, T/C [12] of the same compound?
The viability, T/C was 97.4%.

And the viability, T/C [13]?
Its viability, T/C is 93.9%.

What about the viability, T/C [14] of the same compound?
The viability, T/C was 97%.

What about the viability, T/C [15] of the same compound?
Its viability, T/C is 88.4%.

What about the viability, T/C [16] of the same compound?
Its viability, T/C is 84.2%.

And the viability, T/C [17]?
Its viability, T/C is 92.4%.

What about the viability, T/C [18] of the same compound?
The viability, T/C was 104%.

What about the viability, T/C [19] of the same compound?
The viability, T/C was 97.5%.

And the viability, T/C [20]?
The viability, T/C was 89.4%.

What about the viability, T/C [21] of the same compound?
The viability, T/C was 89.6%.

And the viability, T/C [22]?
The viability, T/C was 91.7%.

And the viability, T/C [23]?
The viability, T/C was 100%.

And the viability, T/C [24]?
The viability, T/C was 93.8%.

What about the viability, T/C [25] of the same compound?
The viability, T/C was 100%.

What about the viability, T/C [26] of the same compound?
The viability, T/C was 104%.

And the viability, T/C [27]?
Its viability, T/C is 91.8%.

What about the viability, T/C [28] of the same compound?
The viability, T/C was 105%.

And the viability, T/C [29]?
Its viability, T/C is 104%.

What about the viability, T/C [30] of the same compound?
Its viability, T/C is 99%.

What about the viability, T/C [31] of the same compound?
Its viability, T/C is 110%.

And the viability, T/C [32]?
The viability, T/C was 115%.

What about the viability, T/C [33] of the same compound?
Its viability, T/C is 106%.

And the viability, T/C [34]?
The viability, T/C was 105%.

And the viability, T/C [35]?
The viability, T/C was 109%.

And the viability, T/C [36]?
Its viability, T/C is 112%.
